Earlier results in publication PMC11672637, “7-O-Carboxylic Acid-Substituted 3-O-Alkyl Difluoroquercetin; An Aztreonam-Potentiating Agent Against Carbapenemase-Producing Pseudomonas aeruginosa Through Simultaneous Inhibition of Metallo-β-Lactamase and Efflux Pump” (Antibiotics, 2024).

Tests used:
Parameters in all cases: method as in earlier work
Details in all cases: Table S1; cited from earlier work
[1] = system: Ambler Class A β-lactamases
[2] = system: Ambler Class C β-lactamases
[3] = system: Ambler Class D β-lactamases

NC(=O)[C@@H]1CC[C@@H]2CN1C(=O)N2OS(=O)(=O)O [AVI, avibactam]
inhibits: BLi activity (Ambler Class A) [1] | BLi activity (Ambler Class C) [2] | BLi activity (Ambler Class D) [3]
